Laboratory results as given in ChEMBL document CHEMBL5120855, “Potent 2,3-dihydrophthalazine-1,4-dione derivatives as dual inhibitors for mono-ADP-ribosyltransferases PARP10 and PARP15” (Eur J Med Chem, 2022).

What was measured:
[1] = molecular target: T1, Poly [ADP-ribose] polymerase tankyrase-1 (Homo sapiens, UniProt O95271); assay: Inhibition of human TNKS1
T1 sequence (O95271 whole entry): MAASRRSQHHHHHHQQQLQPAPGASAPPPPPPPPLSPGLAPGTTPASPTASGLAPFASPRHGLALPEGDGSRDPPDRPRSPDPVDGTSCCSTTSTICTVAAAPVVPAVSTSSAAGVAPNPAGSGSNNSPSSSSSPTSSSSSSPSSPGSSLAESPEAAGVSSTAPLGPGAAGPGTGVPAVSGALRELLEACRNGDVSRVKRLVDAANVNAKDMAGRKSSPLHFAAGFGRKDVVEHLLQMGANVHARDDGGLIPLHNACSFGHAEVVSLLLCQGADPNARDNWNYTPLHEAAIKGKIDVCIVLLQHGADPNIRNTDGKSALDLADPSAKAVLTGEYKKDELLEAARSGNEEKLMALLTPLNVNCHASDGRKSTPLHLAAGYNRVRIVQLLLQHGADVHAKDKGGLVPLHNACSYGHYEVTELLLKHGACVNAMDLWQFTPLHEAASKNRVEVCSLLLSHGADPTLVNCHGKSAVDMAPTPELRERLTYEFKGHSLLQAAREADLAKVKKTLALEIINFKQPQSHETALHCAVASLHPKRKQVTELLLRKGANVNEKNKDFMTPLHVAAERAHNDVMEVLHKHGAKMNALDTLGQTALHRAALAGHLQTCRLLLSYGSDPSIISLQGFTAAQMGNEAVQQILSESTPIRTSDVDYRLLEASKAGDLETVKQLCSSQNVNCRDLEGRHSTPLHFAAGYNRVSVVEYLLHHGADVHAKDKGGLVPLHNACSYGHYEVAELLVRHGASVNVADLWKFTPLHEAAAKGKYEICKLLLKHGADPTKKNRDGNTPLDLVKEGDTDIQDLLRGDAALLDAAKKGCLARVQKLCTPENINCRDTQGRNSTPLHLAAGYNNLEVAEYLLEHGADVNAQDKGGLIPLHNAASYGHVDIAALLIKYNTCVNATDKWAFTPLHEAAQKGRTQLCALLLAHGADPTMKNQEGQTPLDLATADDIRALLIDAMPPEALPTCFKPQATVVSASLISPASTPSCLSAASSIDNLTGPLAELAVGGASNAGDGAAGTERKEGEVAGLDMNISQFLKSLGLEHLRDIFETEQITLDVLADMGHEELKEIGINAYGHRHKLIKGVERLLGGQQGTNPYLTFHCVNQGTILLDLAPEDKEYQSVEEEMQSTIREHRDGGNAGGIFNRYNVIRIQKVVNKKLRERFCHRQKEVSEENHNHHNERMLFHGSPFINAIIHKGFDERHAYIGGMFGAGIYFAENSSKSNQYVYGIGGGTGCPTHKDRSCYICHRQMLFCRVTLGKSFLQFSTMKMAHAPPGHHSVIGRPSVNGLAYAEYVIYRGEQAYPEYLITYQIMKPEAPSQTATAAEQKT

[2] = molecular target: T2, Protein mono-ADP-ribosyltransferase PARP12 (Homo sapiens, UniProt Q9H0J9); assay: Inhibition of human PARP12
T2 sequence (Q9H0J9 whole entry): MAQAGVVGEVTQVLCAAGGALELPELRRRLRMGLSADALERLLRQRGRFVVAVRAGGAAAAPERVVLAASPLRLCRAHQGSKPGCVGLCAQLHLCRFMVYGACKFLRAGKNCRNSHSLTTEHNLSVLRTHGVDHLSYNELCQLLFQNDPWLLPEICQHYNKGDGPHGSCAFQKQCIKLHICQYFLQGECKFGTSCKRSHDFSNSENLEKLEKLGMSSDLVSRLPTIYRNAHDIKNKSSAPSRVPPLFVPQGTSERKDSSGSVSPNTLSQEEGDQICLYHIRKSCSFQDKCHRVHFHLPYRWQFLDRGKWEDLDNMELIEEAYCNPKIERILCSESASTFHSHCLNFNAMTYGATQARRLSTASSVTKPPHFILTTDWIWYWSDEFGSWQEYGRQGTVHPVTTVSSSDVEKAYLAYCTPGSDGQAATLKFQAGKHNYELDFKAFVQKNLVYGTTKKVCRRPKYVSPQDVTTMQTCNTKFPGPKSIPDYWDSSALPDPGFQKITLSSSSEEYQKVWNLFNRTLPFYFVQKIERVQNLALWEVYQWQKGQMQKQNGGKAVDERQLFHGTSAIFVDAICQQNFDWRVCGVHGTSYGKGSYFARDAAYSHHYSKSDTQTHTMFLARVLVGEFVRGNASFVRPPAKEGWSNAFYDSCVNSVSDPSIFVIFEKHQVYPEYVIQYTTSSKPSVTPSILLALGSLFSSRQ

HeLa = assay: Rescue of cell viability in human HeLa cells expressing wild type PARP10 at upto 10 uM incubated for 10 to 12 days by methylene blue dye based colony formation assay; type: functional
[3] = molecular target: Poly [ADP-ribose] polymerase 2 (Homo sapiens, UniProt Q9UGN5); assay: Inhibition of human PARP2 using NAD+ as substrate incubated for 10 mins by fluorescence based analysis
Poly [ADP-ribose] polymerase 2, sequence (Q9UGN5 whole entry): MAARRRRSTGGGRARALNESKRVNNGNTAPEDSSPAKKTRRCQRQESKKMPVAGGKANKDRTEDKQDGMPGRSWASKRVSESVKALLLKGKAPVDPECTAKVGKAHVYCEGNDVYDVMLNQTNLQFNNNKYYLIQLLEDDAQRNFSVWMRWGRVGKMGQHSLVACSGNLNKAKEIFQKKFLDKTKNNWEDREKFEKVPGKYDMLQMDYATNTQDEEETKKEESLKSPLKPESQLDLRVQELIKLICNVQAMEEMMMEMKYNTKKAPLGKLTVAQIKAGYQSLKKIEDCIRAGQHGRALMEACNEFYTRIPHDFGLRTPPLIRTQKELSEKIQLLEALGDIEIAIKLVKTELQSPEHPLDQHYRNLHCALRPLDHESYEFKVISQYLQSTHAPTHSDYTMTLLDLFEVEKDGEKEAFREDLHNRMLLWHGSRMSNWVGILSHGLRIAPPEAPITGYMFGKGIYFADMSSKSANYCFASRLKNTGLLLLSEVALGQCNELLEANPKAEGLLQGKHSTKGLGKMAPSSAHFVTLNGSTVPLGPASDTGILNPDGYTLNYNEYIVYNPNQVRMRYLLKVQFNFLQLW

[4] = molecular target: T3, Protein mono-ADP-ribosyltransferase PARP16 (Homo sapiens, UniProt Q8N5Y8); assay: Inhibition of human PARP16
T3 sequence (Q8N5Y8 whole entry): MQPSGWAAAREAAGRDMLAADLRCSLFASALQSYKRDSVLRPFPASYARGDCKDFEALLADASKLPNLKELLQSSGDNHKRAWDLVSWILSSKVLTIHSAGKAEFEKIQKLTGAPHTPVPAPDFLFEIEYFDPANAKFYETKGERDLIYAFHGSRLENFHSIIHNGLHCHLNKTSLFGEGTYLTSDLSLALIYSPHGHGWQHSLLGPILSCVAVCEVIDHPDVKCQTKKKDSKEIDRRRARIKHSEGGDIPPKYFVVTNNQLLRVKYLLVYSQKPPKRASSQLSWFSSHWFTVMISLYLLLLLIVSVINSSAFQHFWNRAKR

HEK-293T = assay: Cytotoxicity against HEK293T cells assessed as reduction in cell viability at 10 uM measured after 24 hrs by WST-1 assay; type: toxicity, cell-based; conditions: human

IC50 [1]: > 100 µM
IC50 [2]: > 10 µM
EC50 (HeLa): 0.59 µM
IC50 [3]: 38 µM
IC50 [4]: > 10 µM
Structure (SMILES): NC(=O)c1ccc(OCC2CCC2)cc1
Activity (HEK-293T): Non-Toxic
